Patent publication US8916712B2, “Compositions and methods for cytoprotection” (Board of Trustees of the University of Arkansas, priority 2007, dated 2014)

Experiments:
[1] = system: human U937 cells; test: Radiation injury of U937 cells (4 Gy), chelates added before or at times after irradiation; type: cell-based; details: added 30 minutes before, immediately after, or up to 4 hours after irradiation
Procedure: (§1) FRTL-5 thyroid cells (ATCC, catalog #CRL8305) were irradiated with 450 Gy without or with Zn^2+-chelates added before and/or after irradiation. […] In another experiment, Zn^2+-chelates (i.e., Zn-captopril, Zn-NAC, Zn-penicillamine, or Zn-PTCA) were added to human U937 cells either 30 minutes before, immediately after, or up to 4 hours after irradiation (4 Gy).

[2] = Trolox-Equivalent Antioxidant Capacity (TEAC) Assay; details: for TEAC value, Chelate: relative to Trolox standard assigned TEAC 1.00, zinc chelate of the named ligand
Procedure: The antioxidant capacity of the zinc chelates was measured using the 6-hydroxy-2,5,7,8-tetramethylchroman-2-carboxylic acid (Trolox)-Equivalent Antioxidant Capacity (TEAC) Assay (Randox Laboratories Ltd., Antrim, United Kingdom). […] Antioxidant capacity was measured relative to the Trolox standard, which was assigned a TEAC value of 1.00.

[3] = target: T1, rat serum DNase (predominantly rat DNase I) (Rattus norvegicus, UniProt P21704); test: Plasmid incision assay of endonuclease activity, rat serum DNase; type: biochemical; details: 0, 100 or 200 μM; 1 hour at 37° C.; pBR322 plasmid DNA
T1 construct: rat serum DNase (which is predominantly rat DNase I); from tissue; host or cells: rat serum
T1 sequence (P21704 23-284): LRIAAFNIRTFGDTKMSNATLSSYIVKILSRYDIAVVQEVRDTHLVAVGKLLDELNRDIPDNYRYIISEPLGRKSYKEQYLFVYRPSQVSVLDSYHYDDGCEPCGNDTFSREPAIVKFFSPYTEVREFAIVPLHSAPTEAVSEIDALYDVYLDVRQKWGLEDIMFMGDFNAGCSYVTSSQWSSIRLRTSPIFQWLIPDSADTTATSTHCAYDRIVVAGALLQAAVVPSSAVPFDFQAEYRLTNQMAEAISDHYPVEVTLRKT
Procedure: (§2) Endonuclease activity was measured using a plasmid incision assay. Activity was measured in 20 μl samples containing 1 μg pBR322 plasmid DNA, 10 mM Tris-HCl, pH 7.7, 25 μg/ml bovine serum albumin V fraction, 0.5 mM dithiothreitol, 5 mM MgCl2, 2 mM CaCl2, and 2 μl endonuclease. After 1 hour incubation at 37° C., the reaction was stopped by the addition 5 μl 1% SDS, 100 mM EDTA. Digested DNA was then subjected to a 1% agarose gel electrophoresis at 7 V/cm for 1 hour at room temperature. The gel was stained in 0.5 μg/ml ethidium bromide solution for 20 minutes and photographed under […]. Scanning densitometer Fotodyne (Fotodyne Inc., Hartland, Wis.) was utilized to quantify the relative amount of endonuclease-treated plasmid DNA present in a covalently closed circular DNA (cccDNA), open circular DNA (ocDNA) or linear DNA (linDNA). One endonuclease unit was defined as the amount of enzyme required to convert 1 μg cccDNA to ocDNA and linDNA.
(§3) Recombinant DNase I and rat serum DNase (which is predominantly rat DNase I) were incubated with 0, 100, or 200 μM of a Zn^2+-chelate (i.e., Zn-3,5-diisopropylsalicylic acid (DIPS), Zn-gluconate, or Zn-glycinate), a ligand (i.e., DIPS, gluconic acid, or glycine, as negative controls), or ZnCl2 (as positive control).

[4] = target: T2, recombinant human DNase I (Homo sapiens, UniProt P24855); test: Plasmid incision assay of endonuclease activity, recombinant DNase I; type: biochemical; details: for Inhibition of DNase I activity: 0, 100 or 200 μM, 1 hour at 37° C., pBR322 plasmid DNA
T2 construct: Recombinant DNase I was produced using a similar approach; made in house
T2 sequence (P24855 23-282): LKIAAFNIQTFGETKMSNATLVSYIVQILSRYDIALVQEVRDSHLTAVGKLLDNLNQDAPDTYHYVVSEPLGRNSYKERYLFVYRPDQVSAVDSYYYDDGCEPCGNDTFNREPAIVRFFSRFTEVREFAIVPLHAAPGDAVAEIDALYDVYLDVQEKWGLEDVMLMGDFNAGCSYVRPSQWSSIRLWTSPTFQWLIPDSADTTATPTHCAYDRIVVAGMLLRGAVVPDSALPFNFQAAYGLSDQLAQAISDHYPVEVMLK
Procedure: It was hypothesized that Zn^2+-chelates of aminothiols could provide radioprotection via their direct inhibition of nucleases and their antioxidant properties (i.e., prevent nuclease induction and release). To test this hypothesis, the activity of Zn(II) chelates to inhibit nucleases was assayed in vitro. For this, DNase I and EndoG were cloned, recombinant nuclease were expressed and purified for the in vitro assay. Human and mouse mature EndoG cDNA was reverse transcribed by RT-PCR from either normal human breast epithelial HMEC cells (Clonetics, Walkersville, Md.) or immortalized mouse proximal tubule epithelial TKPTS cells (obtained from D. Elsa Bello-Reuss, University of Texas Medical Branch, Galveston). The plasmid for mature human EndoG (A49-K297) with a C-terminal histidine tag and mouse mature EndoG (A45-K294) with a C-terminal histidine tag were constructed by inserting coding cDNA into pET29b(+) (Novagen, San Diego, Calif.) and expressed in Escherichia coli BL21 (DE3) cells using standard procedures. Expression of the recombinant proteins was induced by IPTG. The expressed recombinant protein was purified by HisTrap FF crude Kit (GE Healthcare, Uppsala, Sweden) and stored in 20 mM Tris-HCl, ph 7.5, 0.5 M NaCl, 2 mM 2-mercaptoethanol, and 50% glycerol.
as §2, §3

[5] = system: U937 human promonocytic cells
Procedure: To determine the radioprotective effects of Zn^2+-chelates, U937 human promonocytic cells (ATCC number CRL-1593.2) were irradiated with or without Zn^2+-chelates added to the cells before or after irradiation, and radiation-induced cell death was measured 24 hr later using a propidium iodide (PI) assay. Propidium iodide was added to the cells at a final concentration of 4 μM and incubated for 15 minutes. Fluorescence (which indicates dead cells) was measured at 530/645 nm, and fluorescence was measured again after cell lysis with Triton-100 (1%, v/v) for 20 minutes (to give an estimate of total cells). The background (no cells) was subtracted, and the percent of the radiation-induced cell death was computed.
Different concentrations (0-100 μM) of a compound were added to the cells, which were then irradiated with 50 Gy.
Human U937 cells were irradiated in vitro with 50 Gy and the compounds were added at different concentrations (0-100 μM) immediately after irradiation. […] Cell death was measured 24 hr after irradiation using a PI assay (as detailed above).

[6] = system: FRTL-5 thyroid cells; test: Radiation-induced thyroid cell death (450 Gy), LDH release assay or Comet assay; type: cell-based; details: added after radiation, 24 hr
Procedure: as §1

[7] = system: white pulp splenocytes; test: Total body irradiation of mice (8 Gy), TUNEL-positive white pulp splenocytes; type: in vivo, mouse
Excerpt: Mice were exposed to total body irradiation and the radioprotective effects of Zn^+-chelates administered before or after the irradiation were examined. Each unanesthetized mouse was placed temporarily in a well ventilated plexiglass restrainer and exposed to total body irradiation from a cesium irradiator. A dose of 8 Gy was chosen on the basis of previous studies utilizing male CD-1 mice (Bichay et al., 1986, supra). A total of 6-10 animals per group were used. The animals were allowed to survive for 36 hr after irradiation.
To test for radioprotective effects, Zn-DIPS was injected subcutaneously twice a day 15 mg/kg each time (i.e., 30 mg/kg/day). One group of animals (“before”) received Zn-DIPS starting 2 days before irradiation and continued until 36 hr after irradiation. Another group (“after”) was injected with Zn-DIPS about 30 min […] irradiation and continued until euthanasia. “Vehicle” control animals were injected with vehicle (i.e., saline) for the duration of the experiment, and irradiated with the same dose.
FIG. 12 presents the number of TUNEL-positive cells in white pulp splenocytes from the different groups.

[8] = system: U937 cells; test: Radiation-induced DNA fragmentation in U937 cells, TUNEL assay; type: cell-based, human; details: added before 50 Gy; TUNEL 24 hr later
Procedure: Female CD-1 mice (n=4) were irradiated with an 8 Gy dose and apoptotic endonuclease-mediated DNA fragmentation was measured in different organs 40 hours after irradiation. For this, tissue sections were subjected to terminal deoxynucleotidyl transferase mediated dUTP nick end labeling (TUNEL) staining with the In Situ Cell Death Detection Kit from Roche Diagnostics (Indianapolis, Ind.). After washing and counterstaining with 4,6-diamidino-2-phenylindole (DAPI) sections were mounted under coverslips using the Antifade kit (Molecular Probes; Eugene, Oreg.) and analyzed under an Axioskop-2 mot plus microscope (Carl Zeiss, Gottingen Germany) with green filter set #31001, red filter set #11010v2 and blue filter set #31000 from Chroma Technology Corp. (Rockingham, Vt.). Images and acquisitions were performed using digital camera AxioCam MRm (Carl Zeiss) and software Axiovision 3.1 (Carl Zeiss).
The ability of the Zn^2+-chelates to inhibit radiation-induced DNA fragmentation was also examined. U937 cells were exposed to amifostine (as a positive control) or Zn^2+—N-acetylcysteine (Zn-NAC), irradiated as described above, and DNA fragmentation and cell death were measured 24 hr later using a TUNEL assay, essentially as described in Example 1.

[9] = system: U937 cells; test: Comet assay of U937 cells irradiated with 4 Gy; type: cell-based, human; details: 10 μM, 24 hr after irradiation
Procedure: Considering that the LD50/30 (i.e., the dose that […] in 50% of the animals at 30 days) for mice is approximately 8 Gy (Bichay et al., 1986, Strahlenther Onkol, 162(6):391-399), the 50 Gy dose used to irradiate the cells in the previous example was rather high. Thus, the Zn^2+-chelates were tested for radioprotection against a more physiological dose of radiation. The Zn^2+-chelates tested were Zn-NAC, Zn-captopril, Zn-2-propylthiazolidine-4-carboxylic acid (Zn-PTCA), and Zn-penacillamine. U937 cells were exposed to a Zn^2+-chelate (10 μM), irradiated with 4 Gy, and DNA fragmentation and apoptosis were measured using a single-cell gel electrophoresis assay (also known as Comet assay) 24 hr after irradiation. Alkaline or neutral Comet assays were performed using CometAssay™ kits from Trevigen (Gaithersburg, MC) according to the manufacturer's instructions. The slides were analyzed under an epifluorescense microscope using the Comet assay image analysis software (CometScore; TriTek, Sumerduck, Va.).

## CCCC1NC(C(=O)O)CS1.[Zn] (stereo not drawn) [Zn-PTCA, zinc-2-n-propylthiazolidine-4-carboxylic acid]
[1]
  Protection against radiation injury: protected

## zinc-penicillamine [Zn-Penicillamine]
[1]
  Protection against radiation injury: protected
[2]
  Antioxidant activity in TEAC assay: strongest antioxidants
  TEAC value, Chelate: 2.05

## O=C([O-])[C@H](O)[C@@H](O)[C@H](O)[C@H](O)CO.O=C([O-])[C@H](O)[C@@H](O)[C@H](O)[C@H](O)CO.[Zn+2] [Zn-gluconate]
[3]
  Inhibition of serum DNase activity: inhibited
[4]
  Inhibition of DNase I activity: inhibited

## [Cl-].[Cl-].[Zn+2] [ZnCl2]
[3]
  Inhibition of serum DNase activity: inhibition
[4]
  Inhibition of DNase I activity: inhibition
[5]; 50 Gy, 0-100 μM added immediately after irradiation, PI assay 24 hr
  Radioprotection / cytoprotection: did not provide any radioprotection
[5]; U937 cells, 0-100 μM, 50 Gy
  Cytotoxicity: rather cytotoxic

## CC(C)c1cc(C(=O)O)c(O)c(C(C)C)c1 [DIPS, 3,5-diisopropylsalicylic acid]
[3]
  Inhibition of serum DNase activity: no effect
[4]
  Inhibition of DNase I activity: no effect

## zinc-captopril [Zn-Captopril]
[1]
  Protection against radiation injury: protected
[2]
  TEAC value, Chelate: 0.90

## O=C(O)[C@H](O)[C@@H](O)[C@H](O)[C@H](O)CO [gluconic acid]
[3]
  Inhibition of serum DNase activity: no effect
[4]
  Inhibition of DNase I activity: no effect

## Zn-3,5-diisopropylsalicylic acid [Zn-DIPS]
[6]
  Protection from radiation-induced thyroid cell death: provided protection
[3]
  Inhibition of serum DNase activity: inhibited
[4]
  Inhibition of DNase I activity: inhibited
[4]; DNase I and serum DNase, FIG. 5
  Ranking of nuclease inhibition among the Zn^2+-chelates tested: best inhibition
[7]; 15 mg/kg s.c. twice a day from 2 days before until 36 hr after irradiation
  Radioprotection (TUNEL-positive white pulp splenocytes), administered before irradiation: partial radioprotection
[7]; 15 mg/kg s.c. twice a day, "after" group
  Radioprotection (TUNEL-positive white pulp splenocytes), administered after irradiation: partial radioprotection
[7]; versus DNase I knock-out mice
  Protection of spleen compared with inactivation of DNase I: better protection

## NCCCNCCSP(=O)(O)O [amifostine, Amifostine]
[8]
  Radiation-induced DNA fragmentation: inhibited
[9]
  Visual comets (DNA degradation): absent
[5]; compound added before 50 Gy, Zn^2+-chelate 1-20 μM, PI assay 24 hr later
  Radiation-induced cell death: inhibition

## NCC(=O)[O-].NCC(=O)[O-].[Zn+2] [Zn-glycinate]
[3]
  Inhibition of serum DNase activity: inhibited
[4]
  Inhibition of DNase I activity: inhibited

## NCC(=O)O [glycine]
[3]
  Inhibition of serum DNase activity: no effect
[4]
  Inhibition of DNase I activity: no effect
